Data published in PMC12386283, “Elucidating the Complex Structural and Molecular Mechanisms Driving P-Glycoprotein-Mediated Transport of Cardiac Glycosides” (International Journal of Molecular Sciences, 2025).
Several values for one entry are separate records, joined by “and”; a condition that tells them apart may be missing. Equal entries are not always repeated. Where two headings read alike, the source gives them in different places.

Experiments:
[1] = target: T1, P-glycoprotein (wild-type mouse Pgp, MDR3) (Mus musculus, UniProt P21447); assay: in vitro; conditions: mouse, pH 7.4
T1 sequence (P21447 whole entry): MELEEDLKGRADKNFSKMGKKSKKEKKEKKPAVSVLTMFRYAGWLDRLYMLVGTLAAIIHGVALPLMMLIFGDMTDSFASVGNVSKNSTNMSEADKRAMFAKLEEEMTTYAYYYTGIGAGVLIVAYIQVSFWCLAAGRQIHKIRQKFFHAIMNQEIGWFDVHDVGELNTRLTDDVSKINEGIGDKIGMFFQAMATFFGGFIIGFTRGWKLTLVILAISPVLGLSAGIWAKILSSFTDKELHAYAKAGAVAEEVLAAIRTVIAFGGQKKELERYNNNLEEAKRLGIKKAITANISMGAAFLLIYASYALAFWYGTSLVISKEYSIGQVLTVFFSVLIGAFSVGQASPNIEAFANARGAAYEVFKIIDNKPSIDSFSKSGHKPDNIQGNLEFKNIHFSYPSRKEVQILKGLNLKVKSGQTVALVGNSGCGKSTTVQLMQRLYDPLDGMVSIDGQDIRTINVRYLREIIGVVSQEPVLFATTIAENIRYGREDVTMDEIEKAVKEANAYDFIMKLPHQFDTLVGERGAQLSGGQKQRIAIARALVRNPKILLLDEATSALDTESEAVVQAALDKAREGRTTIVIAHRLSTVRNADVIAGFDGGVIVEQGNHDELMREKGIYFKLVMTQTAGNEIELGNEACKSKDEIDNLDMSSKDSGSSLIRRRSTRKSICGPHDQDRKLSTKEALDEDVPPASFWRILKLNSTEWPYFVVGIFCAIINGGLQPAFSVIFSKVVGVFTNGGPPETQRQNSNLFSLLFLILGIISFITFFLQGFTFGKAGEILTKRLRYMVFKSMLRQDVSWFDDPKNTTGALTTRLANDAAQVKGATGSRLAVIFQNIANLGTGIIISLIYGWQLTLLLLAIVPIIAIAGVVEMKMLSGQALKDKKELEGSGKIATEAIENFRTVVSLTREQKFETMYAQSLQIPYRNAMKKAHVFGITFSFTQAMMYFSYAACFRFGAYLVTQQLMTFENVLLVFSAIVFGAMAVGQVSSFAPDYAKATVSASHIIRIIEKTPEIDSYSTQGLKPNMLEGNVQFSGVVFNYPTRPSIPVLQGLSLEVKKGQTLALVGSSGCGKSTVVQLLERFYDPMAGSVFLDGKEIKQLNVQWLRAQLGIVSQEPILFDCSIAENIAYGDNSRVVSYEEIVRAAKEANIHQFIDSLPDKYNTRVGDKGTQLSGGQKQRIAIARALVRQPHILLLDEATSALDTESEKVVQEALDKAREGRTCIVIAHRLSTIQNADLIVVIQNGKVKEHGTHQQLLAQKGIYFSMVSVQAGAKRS
Protocol: (§1) Overexpression of wild-type mouse Pgp (MDR3) was achieved by using genetically engineered strains of Pichia pastoris with a 6X histidine tag. The cells were cultured in glycerol media, and methanol was used to induce the overexpression of Pgp at the Bioexpression and Fermentation Facility (BFF), University of Georgia, Athens, GA, USA. A repeated cycle of freezing using liquid nitrogen, blending, and thawing was used to lyse the Pgp-expressing P. pastoris cells. The protein was purified using affinity chromatography with nickel-nitrilotriacetic acid (Ni-NTA) resin (Thermo Fisher Scientific, Waltham, MA, USA). DDM was used to solubilize the protein, and the solution was concentrated using Amicon Ultra-15 100 kDa cut-off filters (EMD Millipore, Billerica, MA, USA). […] The purified DDM-solubilized Pgp was aliquoted and stored at −80 °C for future analysis.
(§2) Pgp was reconstituted into liposomes as previously described. Briefly, liposomes comprising 80% (w/v) Avanti Escherichia coli total lipid extract and 20% (w/v) cholesterol were dissolved in chloroform to achieve a final concentration of 10 mg mL^−1, and the volume was adjusted to 10 mL. […] The solution was subjected to ten cycles of freeze–thaw using liquid nitrogen and a water bath (67 °C), resulting in the formation of liposomes with varying sizes, and extruded eleven times in a LIPEX extruder (Northern Lipids, Burnaby, BC, Canada) to produce identical-sized liposomes, using a 400 nm cut-off filter.
(§3) Approximately 40 µL of DDM-solubilized Pgp was dialyzed for two hours against HEPES buffer (20 mM HEPES, 100 mM NaCl, 5 mM MgCl2, 2 mM DTT, pH 7.4) to remove any remnants of the detergent, DDM. The dialyzed protein was mixed with 4 mg mL^−1 of the extruded liposomes and incubated on ice for at least one hour to allow Pgp to integrate into the liposomes. To remove any additional detergent and further facilitate Pgp integration into the liposome, the solution was dialyzed for a second time for two hours in HEPES buffer to form proteoliposomes, and the concentration of Pgp reconstituted in liposomes was determined using the Bio-Rad DC Protein assay. Finally, the solution was aliquoted and stored at −80 °C for future use.
(§4) The Chifflet method is a colorimetric method that measures the amount of free inorganic phosphate (Pi) through the formation of ammonium molybdate and Pi complex, which produces a strong absorbance at 850 nm. The absorbance was measured on a 96-well plate using a CLARIOstar microplate reader (BMG Labtech, Ortenberg, Germany). […] The final concentrations of the proteoliposome and ATP were maintained at 50 nM and 3.2 mM, respectively. Orthovanadate was used as a control and run in parallel to the samples. Finally, the kinetic curves for ATPase activity were fit to a modified Michaelis-Menten equation (Equation (1)). Igor 6.2 Pro software (Wavemetrics, Tigard, OR, USA) was used for data analysis.(1) V=VmaxS/Km+S+Vbasal where V = Rate of ATP hydrolysis; Vmax = Maximum velocity of ATP hydrolysis; [S] = Substrate concentration; Km = Michaelis–Menten constant; and Vbasal = basal ATPase activity.

[2] = target: T2, wild-type mouse Pgp (MDR3) (Mus musculus, UniProt P21447); assay: Pgp-mediated ATPase activity (Chifflet colorimetric Pi assay, proteoliposomes)
T2 sequence (P21447 whole entry): as above
Protocol: as §1, §2, §3, §4

[3] = target: T2, wild-type mouse Pgp (MDR3); assay: biochemical
Protocol: (§5) Overexpression of wild-type mouse Pgp (MDR3) was achieved by using genetically engineered strains of Pichia pastoris with a 6X histidine tag. The cells were cultured in glycerol media, and methanol was used to induce the overexpression of Pgp at the Bioexpression and Fermentation Facility (BFF), University of Georgia, Athens, GA, USA. A repeated cycle of freezing using liquid nitrogen, blending, and thawing was used to lyse the Pgp-expressing P. pastoris cells. The protein was purified using affinity chromatography with nickel-nitrilotriacetic acid (Ni-NTA) resin (Thermo Fisher Scientific, Waltham, MA, USA). DDM was used to solubilize the protein, and the solution was concentrated using Amicon Ultra-15 100 kDa cut-off filters (EMD Millipore, Billerica, MA, USA). The concentration of purified protein was measured at 280 nm using a calculated extinction coefficient of 1.28 per mg mL^−1 on a Nanodrop (DeNovix, Wilmington, DE, USA). […] The purified DDM-solubilized Pgp was aliquoted and stored at −80 °C for future analysis.
as §3
(§6) The intrinsic tryptophan residues in the protein can be selectively excited and emitted at 295 nm and 330 nm wavelengths, respectively. The binding of the drug to the protein can alter the spatial arrangement encountered by the tryptophan residue(s) and thereby regulate the fluorescence intensity of the protein [52]. […] Proteoliposomes diluted to 1 µM in Chifflet buffer containing 2 mM DTT were titrated against varying concentrations of drugs. The intrinsic protein fluorescence was measured at 330 nm upon excitation at 295 nm using an Olis DM 45 spectrophotometer (Olis Corporation, Bogart, GA, USA). To nullify the effect of Rayleigh bands on the observed spectra, a 10 nm band-pass filter was inserted on the excitation and emission paths of the spectrophotometer. The drug-induced quenching of intrinsic Pgp fluorescence was corrected (Fcorrected) for factors such as dilution, background fluorescence, and inner filter effects using the equation mentioned below (Equation (2)).(2) Fcorrected=F−B10^εexbex+εembemQ/2 where Fcorrected = Drug-induced quenching of intrinsic Pgp fluorescence; F = Emitted intrinsic Pgp fluorescence at 330 nm; [Q] = Concentration of drug; εex and εem = Excitation and emission extinction coefficients, respectively; bex and bem = Path lengths of excitation (0.4 mm) and emission (10 mm) wavelengths, respectively; and B = Background fluorescence measured from drug and solvent.
(§7) The resulting quenching curves were fit using a modified Stern-Volmer equation (Equation (3)), as follows:(3) Fcorrected=FOcorrected/1+KsvQ+Funquenched where Fcorrected = The corrected fluorescence; F0(corrected) = Fluorescence recorded in the absence of drug; [Q] = Concentration of drug; Ksv = Stern–Volmer constant; and F(unquenched) = unquenched fluorescence.

Pgp [4] = conditions: MDCK cell lines overexpressing Pgp; cited from earlier work
[5] = target: T1, P-glycoprotein (wild-type mouse Pgp, MDR3); assay: in vitro; conditions: mouse, pH 7.4; remark: listed apart in the source
Protocol: as §5, §3, §6, §7

Pgp [6] = conditions: CLEFF9 cells, cited from earlier work
[7] = test system: Pgp mutants F336A and I340A; conditions: cited from earlier work
[8] = 1 µM proteoliposome, excitation 295 nm, emission 330 nm, absence of ATP and co-factors

SMILES	Km [1] [µM]	Effect on Pgp's ATPase hydrolytic activity relative to basal ([2]; in words)	Vmax of CG-induced Pgp-mediated ATP hydrolysis ([2]; relative to the offset (basal activity), 37 °C, 3.2 mM ATP, 50 nM proteoliposome, modified Michaelis-Menten fit) [nmol/min/mg]	Kd [3] [µM]	Stern-Volmer constant (Ksv) from CG-induced tryptophan fluorescence quenching in Pgp [3, 8] [µM⁻¹]	Intracellular accumulation in Pgp-overexpressing cells (Pgp [4])	Kd [5] [µM]	Decrease of transport rate on treatment with erythromycin (Pgp [6])	Effect on Pgp's ATPase hydrolytic activity relative to basal [2]	Vmax of CG-induced Pgp-mediated ATP hydrolysis [2]	Stern-Volmer constant (Ksv) from CG-induced tryptophan fluorescence quenching in Pgp [3]	Effect of erythromycin treatment on Pgp-mediated efflux rate (Pgp [6]; in words)	Decrease of digoxin-Pgp interaction for mutants compared to wild-type Pgp [7]
C[C@]12CC[C@H](O)C[C@H]1CC[C@@H]1[C@@H]2CC[C@]2(C)[C@@H](C3=CC(=O)OC3)CC[C@]12O [Digitoxigenin, (3β,5β)-3,14-Dihydroxy-card-20(22)-enolide]	67.6 ± 19.8	induced	216.02 ± 16.01	56.7 ± 15.6	0.01765 ± 0.0048	no significant difference							
C[C@]12CC[C@H](O)C[C@H]1CC[C@@H]1[C@@H]2C[C@@H](O)[C@]2(C)[C@@H](C3=CC(=O)OC3)CC[C@]12O [Digoxigenin, 3β,12β,14-Trihydroxy-5β,20(22)-cardenolide]		induced			0.09839 ± 0.0146		10.16 ± 0.01	about 43%					
C[C@H]1O[C@@H](O[C@H]2[C@@H](O)C[C@H](O[C@H]3[C@@H](O)C[C@H](O[C@H]4CC[C@@]5(C)[C@H](CC[C@@H]6[C@@H]5C[C@@H](O)[C@]5(C)[C@@H](C7=CC(=O)OC7)CC[C@]65O)C4)O[C@@H]3C)O[C@@H]2C)C[C@H](O)[C@@H]1O [Digoxin]				6.85 ± 0.83					induced	277.53 ± 7.24 nmol min^−1 mg^−1 and 277.53 ± 7.24	0.146 ± 0.0117 and 0.146 ± 0.0117 µM^−1	did not affect	two- to four-fold
